The source of these data is patent US9617239B2, “Phenoxy thiophene sulfonamides and their use as inhibitors of glucuronidase” (North Carolina Central University, priority 2010, dated 2017).

Assay [1] concerns the target E. coli β-glucuronidase (Escherichia coli (strain K12), UniProt P05804). In words: β-Glucuronidase assay (4MUG hydrolysis, fluorescence). In kind it is biochemical. Conditions: Table 1; compounds from 35,000 compound diversity set library; 50 pM enzyme, 125 uM 4MUG; read-out: IC50, β-Glucuronidase Inhibitory activity of phenoxythiophene sulfonamides.
In assay [2] the test system is rats. Particulars: background, reference 14; cited from earlier work.

The term IC50 denotes the concentration that gives 50% inhibition. As for `O=[S+]([O-])(NCc1cccc2ccccc12)c1ccc(Oc2ccc(OCc3ccccc3)cc2)s1` [BRITE-355169], in assay [1], the IC50 worked out at 153 µM. Still for that read-out and setting: as for `COc1cccc(OC)c1Oc1sc([S+](=O)([O-])NCc2cccc3ccccc23)cc1Cl` [BRITE-355201], the figure is 202 µM. Regarding `O=C1OC(C(O)C(=O)O)C(O)C1O` (stereo not shown) [saccharic acid 1,4-lactone], in assay [2], the “reversal of SN-38-related epithelial cell death and severe diarrhea from CPT-11” value is on record as “partially reversed”. As to `O=[S+]([O-])(NCc1cccc2ccccc12)c1cc(Cl)c(Oc2cccc(-c3ccccc3)c2)s1` [BRITE-355180], the IC50 in assay [1] turned out to be 102 µM. Regarding `O=[S+]([O-])(NCc1cccc2ccccc12)c1cc(Cl)c(Oc2ccccc2)s1` [BRITE-355253], the IC50 in assay [1] was 444 µM. As to `O=[S+]([O-])(NCc1cccc2ccccc12)c1cc(Cl)c(Oc2ccc3c(c2)CCCC3)s1` [BRITE-355244], in assay [1], the IC50 came to 123 µM. Still for that read-out and setting: as for `COc1ccc2ccc(Oc3ccc([S+](=O)([O-])NCc4cccc5ccccc45)s3)cc2c1` [BRITE-354458], the figure is 175 µM; as for `O=[S+]([O-])(NCc1cccc2ccccc12)c1ccc(Oc2ccc3c(c2)CCCC3)s1` [BRITE-355030], 149 µM. The same measure, in the same setting: in the case of `CCCOc1ccc(Oc2sc([S+](=O)([O-])NCc3cccc4ccccc34)cc2Cl)cc1` [BRITE-355221] it was 402 µM. Turning to `Cc1cc(C)cc(Oc2sc([S+](=O)([O-])NCc3cccc4ccccc34)cc2Cl)c1` [BRITE-355234], in assay [1], the IC50 was determined as 152 µM. In the case of `O=[S+]([O-])(NCc1cccc2ccccc12)c1cc(Cl)c(Oc2ccc3c(c2)OCO3)s1` [BRITE-355233], in assay [1], the IC50 was found to be 376 µM. Take `Cc1cc(Oc2sc([S+](=O)([O-])NCc3cccc4ccccc34)cc2Cl)cc(C(C)C)c1` [BRITE-355214]: the IC50 in assay [1] worked out at 135 µM. Regarding `O=[S+]([O-])(NCc1cccc2ccccc12)c1cc(Cl)c(Oc2cccnc2)s1` [BRITE-355211], the IC50 in assay [1] is 192 µM.
